# Source: patent US4659734A, “Olinecarboxylic acid derivatives” (Nippon Shinyaku Co., Ltd., priority 1983, dated 1987)
# Columns and labels:
# [1] = test system: Bacillus subtilis ATCC 6633; assay: Minimum growth inhibiting concentration, Japan Chemotherapeutic Society method; format: cell-based; conditions: ATCC6633; Bacillus subtilis ATCC 6633, Gram +; 5% horse blood added agar medium; read-out: Minimum Growth Inhibiting Concn
# Procedure: (§1) The Antibacterial activity of the compounds of Examples 14, 13, 22b, 21 and 15 was determined in accordance with the method of Japan Chemotherapeutic Society (cf. Nippon Kagaku Ryoho Gakkai Shi, volume 29, number 1, pages 76 to 79, 1981) and the results are reported in Table 1, which follows. | *5% Horse blood added agar medium for sensitivity measurement being used.
# [2] = test system: Streptococcus pneumoniae Type I; assay: as above; format: cell-based; conditions: Gram +, 5% horse blood added agar medium, read-out: Minimum Growth Inhibiting Concn
# Procedure: as §1
# [3] = test system: Streptococcus pyogenes S-23; assay: as above; format: cell-based; conditions: S23; Streptococcus pyogenes S-23, Gram +; 5% horse blood added agar medium; read-out: Minimum Growth Inhibiting Concn
# Procedure: as §1
# [4] = test system: Acinetobacter calcoacelicus 54; assay: as above; format: cell-based; conditions: Acinetobacter calcoacelicus 54, Gram -; read-out: Minimum Growth Inhibiting Concn
# Procedure: (§2) The Antibacterial activity of the compounds of Examples 14, 13, 22b, 21 and 15 was determined in accordance with the method of Japan Chemotherapeutic Society (cf. Nippon Kagaku Ryoho Gakkai Shi, volume 29, number 1, pages 76 to 79, 1981) and the results are reported in Table 1, which follows.
# [5] = test system: Alcaligenes faecalis ATCC 8750; assay: as above; format: cell-based; conditions: ATCC8750; Alcaligenes faecalis ATCC 8750, Gram -; read-out: Minimum Growth Inhibiting Concn
# Procedure: as §2
# [6] = test system: Escherichia coli KC-14; assay: as above; format: cell-based; conditions: KC14; Escherichia coli KC-14, Gram -; read-out: Minimum Growth Inhibiting Concn
# Procedure: as §2
# [7] = test system: Escherichia coli NIHJ JC-2; assay: as above; format: cell-based; conditions: NIHJJC2; Escherichia coli NIHJ JC-2, Gram -; read-out: Minimum Growth Inhibiting Concn
# Procedure: as §2
# [8] = test system: Klebsiella pneumoniae K-1966; assay: as above; format: cell-based; conditions: K1966; Klebsiella pneumoniae K-1966, Gram -; read-out: Minimum Growth Inhibiting Concn
# Procedure: as §2
# [9] = test system: Listeria monocytogenes RIMD 1205020; assay: as above; format: cell-based; conditions: RIMD1205020; Listeria monocytogenes RIMD 1205020, Gram +; read-out: Minimum Growth Inhibiting Concn
# Procedure: as §2
# [10] = test system: Micrococcus luteus ATCC 9341; assay: as above; format: cell-based; conditions: ATCC9341; Micrococcus luteus ATCC 9341, Gram +; read-out: Minimum Growth Inhibiting Concn
# Procedure: as §2
# [11] = test system: Proteus mirabilis 181; assay: as above; format: cell-based; conditions: Proteus mirabilis 181, Gram -; read-out: Minimum Growth Inhibiting Concn
# Procedure: as §2
# [12] = test system: Proteus vulgaris DX-19; assay: as above; format: cell-based; conditions: DX19; Proteus vulgaris DX-19, Gram -; read-out: Minimum Growth Inhibiting Concn
# Procedure: as §2
# [13] = test system: Pseudomonas aeruginosa E-2; assay: as above; format: cell-based; conditions: E2; Pseudomonas aeruginosa E-2, Gram -; read-out: Minimum Growth Inhibiting Concn
# Procedure: as §2
# [14] = test system: Pseudomonas aeruginosa No. 12; assay: as above; format: cell-based; conditions: Pseudomonas aeruginosa No. 12, Gram -; read-out: Minimum Growth Inhibiting Concn
# Procedure: as §2
# [15] = test system: Pseudomonas cepacia ATCC 25416; assay: as above; format: cell-based; conditions: Burkholderia cepacia, ATCC25416; Pseudomonas cepacia ATCC 25416, Gram -; read-out: Minimum Growth Inhibiting Concn
# Procedure: as §2
# [16] = test system: Pseudomonas maltophilia ATCC 13637; assay: as above; format: cell-based; conditions: Stenotrophomonas maltophilia, ATCC13637; Pseudomonas maltophilia ATCC 13637, Gram -; read-out: Minimum Growth Inhibiting Concn
# Procedure: as §2
# [17] = test system: Serracia marcescens IFO 3736; assay: as above; format: cell-based; conditions: Serracia marcescens IFO 3736, Gram -; read-out: Minimum Growth Inhibiting Concn
# Procedure: as §2
# [18] = test system: Staphylococcus aureus 209-PJC; assay: as above; format: cell-based; conditions: Gram +, read-out: Minimum Growth Inhibiting Concn
# Procedure: as §2
# [19] = test system: Staphylococcus aureus Smith; assay: as above; format: cell-based; conditions: Gram +, read-out: Minimum Growth Inhibiting Concn
# Procedure: as §2
# [20] = Acute toxicity; conditions: mouse, in vivo; oral, groups of ten ddY male mice; read-out: 50% Lethal Doses (LD50)
# Procedure: Groups of ten ddY strain male mice (body weights: 20±1 grams) of the test compound were orally administered to determine the LD50. There was […] in which many mice died when the dose was 2000 mg/kg or less.
# [21] = test system: Escherichia coli KC-14; assay: Mouse intraperitoneal infection, survival after one week; format: in vivo, ddY strain mice; conditions: KC14, po; Escherichia coli KC-14, 5 × 10^4 per mouse; one dose per os 2 h after infection
# Procedure: (§3) ddY--Strain mice (male; body weight 20±1 grams) of SPF were innoculated with the bacteria set forth in Table 2 by administration of a supension of the bacterial in 4% mucin solution into the abdominal cavity. A compound of the invention was given one time per os two hours after the infection, and, from the survival rate after one week. 50% effective doses (ED50) were calculated by the Behrens-Karber method.
# [22] = test system: Pseudomonas aeruginosa E-2; assay: as above; format: in vivo, ddY strain mice; conditions: E2, po; Pseudomonas aeruginosa E-2, 2 × 10^5 per mouse; one dose per os 2 h after infection; Behrens-Karber
# Procedure: as §3
Compound,MIC [1] [mg/L],MIC [2] [mg/L],MIC [3] [mg/L],MIC [4] [mg/L],MIC [5] [mg/L],MIC [6] [mg/L],MIC [7] [mg/L],MIC [8] [mg/L],MIC [9] [mg/L],MIC [10] [mg/L],MIC [11] [mg/L],MIC [12] [mg/L],MIC [13] [mg/L],MIC [14] [mg/L],MIC [15] [mg/L],MIC [16] [mg/L],MIC [17] [mg/L],MIC [18] [mg/L],MIC [19] [mg/L],LD50 [20] [mg/kg],other results
"O=C(O)c1c(=O)c2cc(F)c(N3CCNCC3)cc2n2ccsc12 [Example 13, 7-fluoro-5-oxo-8(1-piperazinyl)-5H-thiazolo(3,2-a)quinoline-4-carboxylic acid]",0.0063,0.1,0.1,0.78,0.78,0.0063,0.05,0.025,0.2,0.78,0.0063,0.013,0.2,0.2,0.78,0.5,0.2,0.025,0.05,> 2000,–
"CN1CCN(c2cc3c(cc2F)c(=O)c(C(=O)O)c2sccn23)CC1 [Example 14, 7-fluoro-8-(4-methyl-1-piperazinyl)-5-oxo-5H-thiazolo(3,2-a)-quinoline-4-carboxylic acid]",0.0063,0.2,0.2,0.39,0.78,0.013,0.1,0.1,1.56,0.78,0.013,0.0063,0.39,0.39,0.78,0.025,0.39,0.1,0.05,> 2000,ED50 [21]: 1.5 mg/kg; ED50 [22]: 16 mg/kg
